Source: patent US20260053778A1, “USE OF NOVEL PPAR ACTIVITY MODULATOR FOR PREVENTION, AMELIORATION OR TREATMENT OF DEGENERATIVE BRAIN DISEASES” (POSTECH RESEARCH AND BUSINESS DEVELOPMENT FOUNDATION, priority 2022, published 2026)

Experiments:
[1] = target: T1, HIS-tagged recombinant PPAR α protein (Homo sapiens, UniProt Q07869); assay: CNBr-drug and protein binding experiment, PPARα; conditions: Western blotting after 24 h incubation
T1 sequence (Q07869 239-466 limits assumed): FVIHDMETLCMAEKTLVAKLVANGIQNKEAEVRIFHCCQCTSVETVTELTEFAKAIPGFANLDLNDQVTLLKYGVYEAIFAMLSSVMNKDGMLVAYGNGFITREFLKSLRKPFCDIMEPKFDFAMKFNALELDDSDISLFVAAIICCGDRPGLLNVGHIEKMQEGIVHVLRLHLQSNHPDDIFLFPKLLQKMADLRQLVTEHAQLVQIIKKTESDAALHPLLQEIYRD
Protocol: Since the computer prediction program predicted that DTMB binds to PPAR transcription factors, CNBr-drug and protein binding experiments were conducted to confirm whether DTMB actually binds to PPAR. To determine the actual degree of drug-protein binding, the reaction of the protein of the PPAR-α, β/δ, γ ligand-binding portion with the DTMB drug-bound CNBr beads was confirmed through Western blotting.
Specifically, CNBr Sepharose 4B beads were prepared and activated according to the instructions. 100 mg of CNBr-activated Sepharose 4B beads were incubated with drugs or DMSO at 4° C. for 18 h. The drug-bound beads reacted with HIS-tagged recombinant PPAR α, β/δ, and γ proteins. After 24 h of incubation, Western blotting experiments were performed to confirm whether the recombinant proteins bound to the drug-bound beads.

[2] = system: HMO6 cell line; assay: Cell viability assay (MTT), HMO6; format: cell-based; conditions: HMO6, 48 h, at higher concentrations
Protocol: Cell viability was measured by a chromogenic assay that biologically reduces 3-(4,5-dimethyl-thiazol-2-yl)-2,5-diphenyltetrazolium bromide (MTT) to formazan in living cells. Briefly, cells were cultured in 96-well plates in a final volume of 100 μL. After 24 h, the culture medium was replaced with fresh medium containing DTMB compound, and the cells were cultured for another 48 h. Next, MTT (dissolved in PBS at 5 mg/mL) was added to the culture medium. The cells were cultured in the dark at 37° C. for 1 h, and then the supernatant was removed from the wells. The formazan crystals were dissolved by adding total MTT solvent (4 mM HCl and 0.1% Nonidet P-40, both dissolved in isopropanol), and the absorbance was measured at 570 nm using a microplate reader, Infinite 200 Pro NanoQuant microplate reader (TECAN, Switzerland).

[3] = system: 5×FAD Alzheimer's dementia-induced mice; assay: Immunohistochemistry of Aβ aggregates in brain tissue; format: in vivo, mouse; conditions: hippocampus and cerebral cortex regions, 6e10 immunohistochemistry, 5×FAD mice, DTMB 10 mg/kg orally
Protocol: In the case of Alzheimer's dementia, an increase in the formation of Aβ aggregates in brain tissue is observed as a common pathological phenomenon. Therefore, to determine whether DTMB administration inhibited the formation of Aβ aggregates, the amount of AB aggregates in the hippocampus and cerebral cortex, which are closely related to memory ability, was measured using immunochemical staining in 5×FAD Alzheimer's dementia-induced mice.
The mice were perfused with ice-cold phosphate-buffered saline (PBS). The brain tissue was used separately for molecular analysis or immunohistochemistry. The right hemisphere was fixed with 4% PFA and transferred to a sucrose solution (30%) for 24 hours. The right hemisphere was frozen in the optimal cutting temperature compound of dry ice. Coronal sections (18 μm thick) including the hippocampus were cut and prepared on slide glass. The tissue sections were then permeabilized and blocked with blocking solution (5% goat serum and 0.2% Triton X-100 in PBS) for 1 h at room temperature. Primary antibody incubation was performed overnight at 4° C. using anti-6e10 antibody (Biolegend, Japan, 1:100). After washing, the sections were incubated with the appropriate secondary antibody (1:500) for 1 h at room temperature. […] Fluorescence was measured by calculating the % area and analyzed using ImageJ. […]

[4] = system: 5×FAD mice; assay: Western blot and qPCR of APP and β-/γ-secretase in brain tissue; format: in vivo, mouse; conditions: DTMB 10 mg/kg orally
Protocol: Aβ peptides are generated from amyloid precursor protein (APP) by the action of β- and γ-secretase. It is possible that DTMB acts on APP processing to inhibit the formation of Aβ aggregates. To investigate this possibility, the protein levels of total APP and components of β- and γ-secretase were measured in the hippocampus and cortex using western blot and qPCR.
To investigate the soluble and insoluble Aβ components, two extraction steps were performed. Left hemisphere samples were homogenized at a concentration of 100 mg/mL in cold Tris-buffered saline (TBS consisting of 50 mM Tris-pH 7.5 and 150 mM NaCl) with a protease inhibitor cocktail (Thermo Fisher Scientific, Waltham, MO, USA). After centrifugation at 15,000 rpm for 1 hour at 4° C., the supernatant of the sample was used for western blotting. Insoluble proteins were extracted from the pellet by dissolving in 5 M guanidine buffer (5 M guanidine HCl and 150 mM NaCl-pH 7.5). Soluble and insoluble protein samples were stored at −80° C.
Western blot analysis was performed in the same manner as in Example 2-4 using primary antibodies against nicastrin, pen2 (Cell Signaling Technology, Danvers, MA, USA), Aph1 (Invitrogen), amyloid C-terminal fragment (Santa Cruz Biotechnology, Dallas, TX, USA), and GAPDH (Bethyl Laboratories, Mongomery, TX, USA). Secondary antibodies from rabbit (Promega), rat, and goat (Bethyl Laboratories) were used, and detection was performed using SUPEX ECL reagent (Neuronex, Korea) and ImageQuant LAS-4000 (GE Healthcare, MA, USA) according to the manufacturer's instructions. Integrated blot densities were quantified using ImageJ.

[5] = system: 5×FAD mice; assay: RT-PCR of adult microglia isolated from brains of treated mice; format: in vivo, mouse; conditions: microglia isolated from 5×FAD mice administered DTMB
Protocol: To elucidate whether the gliosis reduction effect of DTMB administration confirmed in Example 6 was due to functional changes in microglia, brain tissues from mice administered DTMB were extracted, microglia were isolated, and the expression of genes related to inflammation and activation in microglia was analyzed to what extent they changed.
To isolate adult microglia from the brains of 5×FAD mice treated with DTMB or vehicle, a magnetic-activated cell sorting (MACS) system was used. Whole brain tissue was dissociated to the single-cell level using the gentleMACs dissociation kit (Miltenyi Biotech, Bergisch Gladbach, Germany) according to the manufacturer's instructions. To isolate the immune cell fraction, a 47% Percoll concentration gradient was applied to the single-cell mixture and centrifuged at 2,000 rpm for 10 min. Adult microglia were isolated by LS column after incubation with anti-CD11b MicroBeads (Miltenyi Biotech). RT-PCR was performed using the isolated adult microglia to analyze the expression of microglial activation and inflammation-related genes. The sample size was 3 mice per group.

COc1ccc(-c2cc(=O)oc3c(C)c(OC(=O)[C@H](Cc4c[nH]c5ccccc45)NC(=O)OC(C)(C)C)ccc23)cc1 [DTMB, [4-(4-Methoxyphenyl)-8-methyl-2-oxochromen-7-yl](2S)-3-(1H-indol-3-yl)-2-[(2-methylpropan-2-yl)oxycarbonylamino]propanoate]
Binding of PPARα ligand-binding protein to drug-bound CNBr beads [1]: binds to all subtypes of PPAR
Cytotoxicity (MTT) [2]: no cytotoxicity
Amount of Aβ aggregates [3]: significantly reduced
Protein level of β-secretase ([4]; cortex): slightly decreased
APP protein and mRNA levels ([4]; hippocampus): no changes
Protein levels of β- and γ-secretase ([4]; hippocampus): no changes
Gene expression of Cxcl10 [5]: decreased
Gene expression of IL-1β [5]: decreased
Gene expression of IL-6 [5]: decreased
Gene expression of Iba-1 [5]: decreased
Gene expression of Itgax2 [5]: decreased
Gene expression of TNF-α [5]: decreased
Gene expression of Trem2 [5]: decreased
Gene expression of clec7a [5]: decreased
